The values that follow come from ChEMBL document CHEMBL4507268 (2021).

Molecules are shown by their SMILES.

Test [1] concerns the target NT-3 growth factor receptor (Homo sapiens) (UniProt Q16288). To be noted: Compound concentration 1000.0 nM.
A further test deals with BT-474. Kind of test: Proliferation assay: BT-474 (breast cancer). The format is functional, cell-based. To be noted: Homo sapiens.
The target in test [2] is T1, Inhibitor of nuclear factor kappa-B kinase subunit alpha (Homo sapiens) (UniProt O15111).
T1 sequence (whole entry): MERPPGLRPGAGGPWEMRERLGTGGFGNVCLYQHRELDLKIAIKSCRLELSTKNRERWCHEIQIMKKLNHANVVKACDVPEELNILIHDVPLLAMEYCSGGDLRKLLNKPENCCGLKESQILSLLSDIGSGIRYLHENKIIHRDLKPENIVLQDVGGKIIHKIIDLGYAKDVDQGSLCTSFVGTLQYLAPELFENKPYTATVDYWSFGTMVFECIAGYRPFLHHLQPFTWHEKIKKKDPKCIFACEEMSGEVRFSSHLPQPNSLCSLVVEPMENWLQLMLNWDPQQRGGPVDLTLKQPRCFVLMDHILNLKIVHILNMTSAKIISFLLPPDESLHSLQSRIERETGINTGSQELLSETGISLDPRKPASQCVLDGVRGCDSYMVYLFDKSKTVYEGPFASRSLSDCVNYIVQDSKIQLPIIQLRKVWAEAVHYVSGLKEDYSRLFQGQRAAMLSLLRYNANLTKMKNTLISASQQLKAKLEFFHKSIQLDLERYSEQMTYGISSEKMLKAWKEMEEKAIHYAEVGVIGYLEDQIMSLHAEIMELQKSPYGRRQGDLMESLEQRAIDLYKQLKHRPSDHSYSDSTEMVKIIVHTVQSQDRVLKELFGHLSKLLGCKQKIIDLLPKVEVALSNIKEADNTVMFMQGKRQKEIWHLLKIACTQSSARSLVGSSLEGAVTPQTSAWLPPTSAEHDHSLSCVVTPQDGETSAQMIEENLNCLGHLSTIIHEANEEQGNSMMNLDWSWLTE
The settings on record: Compound concentration 1000.0 nM.

The test system of test [3] is Mast/stem cell growth factor receptor Kit (Homo sapiens), P10721 [D816H]. To be noted: Compound concentration 1000.0 nM.
The target of test [4] is Receptor-interacting serine/threonine-protein kinase 4 (Homo sapiens) (UniProt P57078). The settings on record: Compound concentration 1000.0 nM.
Test [5] deals with Receptor-type tyrosine-protein kinase FLT3 (Homo sapiens), P36888 [K663Q]. The settings on record: Compound concentration 1000.0 nM.
The target in test [6] is Cyclin-dependent kinase 13 (Homo sapiens) (UniProt Q14004). The settings on record: Compound concentration 1000.0 nM.
Test [7] addresses Serine/threonine-protein kinase Nek7 (Homo sapiens) (UniProt Q8TDX7). The settings on record: Compound concentration 1000.0 nM.
Test [8] has as its target Casein kinase I isoform alpha-like (Homo sapiens) (UniProt Q8N752). The settings on record: Compound concentration 1000.0 nM.
Test [9] has as its system Tyrosine-protein kinase ABL1 (Homo sapiens), P00519 [F317L]. The settings on record: Compound concentration 1000.0 nM.
The subject of test [10] is Receptor-type tyrosine-protein kinase FLT3 (Homo sapiens), P36888 [UNDEFINED MUTATION]. The settings on record: Compound concentration 1000.0 nM.
The target of test [11] is Beta-2 adrenergic receptor (Homo sapiens) (UniProt P07550). The settings on record: Compound concentration 10.0 uM.
The target of test [12] is T2, Serine/threonine-protein kinase Sgk2 (Homo sapiens) (UniProt Q9HBY8).
T2 sequence (whole entry): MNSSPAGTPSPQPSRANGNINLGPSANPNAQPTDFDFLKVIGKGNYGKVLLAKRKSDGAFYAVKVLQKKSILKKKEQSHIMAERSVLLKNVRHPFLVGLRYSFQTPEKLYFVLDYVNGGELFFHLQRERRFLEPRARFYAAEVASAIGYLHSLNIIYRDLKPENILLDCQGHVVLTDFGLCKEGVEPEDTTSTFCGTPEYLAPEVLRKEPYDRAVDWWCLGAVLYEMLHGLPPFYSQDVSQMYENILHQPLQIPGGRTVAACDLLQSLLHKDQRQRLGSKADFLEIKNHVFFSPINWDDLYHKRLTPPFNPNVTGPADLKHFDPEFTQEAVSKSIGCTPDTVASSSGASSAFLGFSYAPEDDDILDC
The settings on record: Compound concentration 1000.0 nM.

Test [13] deals with Mitogen-activated protein kinase 7 (Homo sapiens) (UniProt Q13164). The settings on record: Compound concentration 1000.0 nM.
Mitogen-activated protein kinase 7 (Homo sapiens), sequence (Q13164 2-816 limits assumed): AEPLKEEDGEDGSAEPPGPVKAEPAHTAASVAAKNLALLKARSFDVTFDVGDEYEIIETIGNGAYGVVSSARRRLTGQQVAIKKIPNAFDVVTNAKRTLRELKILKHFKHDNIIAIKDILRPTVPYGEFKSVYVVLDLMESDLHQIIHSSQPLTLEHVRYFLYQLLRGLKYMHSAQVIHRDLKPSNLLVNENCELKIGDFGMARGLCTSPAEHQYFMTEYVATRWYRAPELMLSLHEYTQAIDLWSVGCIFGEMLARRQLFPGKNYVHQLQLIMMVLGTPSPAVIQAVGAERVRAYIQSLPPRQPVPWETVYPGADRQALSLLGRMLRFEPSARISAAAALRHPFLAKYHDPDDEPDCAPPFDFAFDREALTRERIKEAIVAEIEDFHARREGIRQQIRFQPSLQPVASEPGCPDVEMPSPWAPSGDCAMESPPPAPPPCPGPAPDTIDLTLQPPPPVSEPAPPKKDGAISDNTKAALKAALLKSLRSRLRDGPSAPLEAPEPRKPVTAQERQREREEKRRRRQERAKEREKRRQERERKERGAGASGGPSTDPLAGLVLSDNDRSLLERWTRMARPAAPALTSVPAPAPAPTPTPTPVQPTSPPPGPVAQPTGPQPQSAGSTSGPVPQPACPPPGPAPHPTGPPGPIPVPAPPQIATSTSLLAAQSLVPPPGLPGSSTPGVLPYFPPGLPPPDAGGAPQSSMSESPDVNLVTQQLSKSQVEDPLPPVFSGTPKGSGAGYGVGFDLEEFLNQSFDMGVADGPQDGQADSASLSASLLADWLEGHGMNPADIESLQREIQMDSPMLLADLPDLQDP

Tyrosine-protein kinase ABL1 (Homo sapiens), P00519 [F317L], sequence (P00519 whole entry F317L): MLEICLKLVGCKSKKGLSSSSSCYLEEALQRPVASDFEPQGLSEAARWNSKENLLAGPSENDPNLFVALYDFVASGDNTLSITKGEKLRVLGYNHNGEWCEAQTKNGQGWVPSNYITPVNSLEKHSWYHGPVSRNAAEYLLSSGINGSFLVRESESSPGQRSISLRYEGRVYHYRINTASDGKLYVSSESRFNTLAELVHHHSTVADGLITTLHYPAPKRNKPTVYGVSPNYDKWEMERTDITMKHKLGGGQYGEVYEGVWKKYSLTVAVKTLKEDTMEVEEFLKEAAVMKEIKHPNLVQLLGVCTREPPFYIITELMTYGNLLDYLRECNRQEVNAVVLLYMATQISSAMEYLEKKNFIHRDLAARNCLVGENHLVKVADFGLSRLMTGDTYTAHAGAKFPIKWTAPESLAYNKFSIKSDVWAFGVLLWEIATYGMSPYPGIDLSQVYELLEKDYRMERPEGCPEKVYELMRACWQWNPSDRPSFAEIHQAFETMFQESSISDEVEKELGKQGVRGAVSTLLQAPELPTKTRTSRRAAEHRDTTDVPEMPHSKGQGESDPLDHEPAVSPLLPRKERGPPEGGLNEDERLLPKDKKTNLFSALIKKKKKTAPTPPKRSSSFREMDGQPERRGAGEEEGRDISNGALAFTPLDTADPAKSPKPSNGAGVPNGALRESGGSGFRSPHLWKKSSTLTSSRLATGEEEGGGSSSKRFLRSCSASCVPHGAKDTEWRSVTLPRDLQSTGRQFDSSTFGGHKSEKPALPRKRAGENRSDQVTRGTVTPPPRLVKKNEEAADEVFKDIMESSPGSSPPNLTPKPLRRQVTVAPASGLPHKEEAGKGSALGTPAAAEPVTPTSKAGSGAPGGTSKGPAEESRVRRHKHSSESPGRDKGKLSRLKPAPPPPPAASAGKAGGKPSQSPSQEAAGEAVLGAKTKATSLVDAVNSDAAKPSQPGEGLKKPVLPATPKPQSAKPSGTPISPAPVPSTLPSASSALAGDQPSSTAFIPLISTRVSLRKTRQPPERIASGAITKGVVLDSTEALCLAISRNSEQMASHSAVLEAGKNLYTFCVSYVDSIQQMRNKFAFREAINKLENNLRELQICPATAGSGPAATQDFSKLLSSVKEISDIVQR
Beta-2 adrenergic receptor (Homo sapiens), sequence (P07550 whole entry, looked up): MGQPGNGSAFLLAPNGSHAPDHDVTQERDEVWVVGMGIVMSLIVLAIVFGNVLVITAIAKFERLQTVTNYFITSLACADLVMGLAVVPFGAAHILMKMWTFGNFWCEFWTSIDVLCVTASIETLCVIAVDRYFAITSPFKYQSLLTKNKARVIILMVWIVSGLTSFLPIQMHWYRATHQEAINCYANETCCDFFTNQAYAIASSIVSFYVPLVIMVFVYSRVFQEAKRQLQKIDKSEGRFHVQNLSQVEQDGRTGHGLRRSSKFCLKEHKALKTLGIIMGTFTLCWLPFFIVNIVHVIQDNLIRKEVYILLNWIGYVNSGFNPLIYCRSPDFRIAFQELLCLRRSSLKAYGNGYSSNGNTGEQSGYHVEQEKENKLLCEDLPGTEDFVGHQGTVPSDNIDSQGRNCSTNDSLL
NT-3 growth factor receptor (Homo sapiens), sequence (Q16288 32-839 limits assumed): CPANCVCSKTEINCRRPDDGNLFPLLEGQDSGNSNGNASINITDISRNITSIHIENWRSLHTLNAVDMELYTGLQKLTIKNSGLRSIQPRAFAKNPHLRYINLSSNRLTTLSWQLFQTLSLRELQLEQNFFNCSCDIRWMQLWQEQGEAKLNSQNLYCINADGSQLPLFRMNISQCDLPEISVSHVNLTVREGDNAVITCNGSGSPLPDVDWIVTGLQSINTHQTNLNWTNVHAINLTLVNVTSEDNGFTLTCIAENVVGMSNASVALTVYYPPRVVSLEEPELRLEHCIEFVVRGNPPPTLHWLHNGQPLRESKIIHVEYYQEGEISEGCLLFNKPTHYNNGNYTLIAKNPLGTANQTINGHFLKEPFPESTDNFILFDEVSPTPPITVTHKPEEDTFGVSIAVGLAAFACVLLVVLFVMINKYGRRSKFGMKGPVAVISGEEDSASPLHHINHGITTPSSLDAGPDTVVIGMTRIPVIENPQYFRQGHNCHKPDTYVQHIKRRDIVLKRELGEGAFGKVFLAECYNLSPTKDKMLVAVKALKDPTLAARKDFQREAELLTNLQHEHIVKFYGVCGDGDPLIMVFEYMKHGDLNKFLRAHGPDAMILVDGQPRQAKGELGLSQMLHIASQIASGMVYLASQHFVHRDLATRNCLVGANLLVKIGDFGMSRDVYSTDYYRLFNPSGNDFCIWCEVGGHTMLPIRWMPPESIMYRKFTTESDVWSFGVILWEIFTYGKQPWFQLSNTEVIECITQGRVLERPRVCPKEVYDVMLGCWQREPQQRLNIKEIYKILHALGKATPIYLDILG
Casein kinase I isoform alpha-like (Homo sapiens), sequence (Q8N752 whole entry, canonical isoform): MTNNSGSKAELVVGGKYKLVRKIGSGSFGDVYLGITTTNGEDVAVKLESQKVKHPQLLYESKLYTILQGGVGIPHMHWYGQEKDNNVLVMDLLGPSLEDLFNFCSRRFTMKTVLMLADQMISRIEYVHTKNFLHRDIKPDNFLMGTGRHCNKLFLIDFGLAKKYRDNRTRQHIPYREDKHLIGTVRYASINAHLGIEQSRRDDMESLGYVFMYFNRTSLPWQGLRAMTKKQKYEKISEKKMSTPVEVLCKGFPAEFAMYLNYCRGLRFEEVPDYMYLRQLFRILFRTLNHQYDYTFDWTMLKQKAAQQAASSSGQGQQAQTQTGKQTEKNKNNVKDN
Mast/stem cell growth factor receptor Kit (Homo sapiens), P10721 [D816H], sequence (P10721 whole entry D816H): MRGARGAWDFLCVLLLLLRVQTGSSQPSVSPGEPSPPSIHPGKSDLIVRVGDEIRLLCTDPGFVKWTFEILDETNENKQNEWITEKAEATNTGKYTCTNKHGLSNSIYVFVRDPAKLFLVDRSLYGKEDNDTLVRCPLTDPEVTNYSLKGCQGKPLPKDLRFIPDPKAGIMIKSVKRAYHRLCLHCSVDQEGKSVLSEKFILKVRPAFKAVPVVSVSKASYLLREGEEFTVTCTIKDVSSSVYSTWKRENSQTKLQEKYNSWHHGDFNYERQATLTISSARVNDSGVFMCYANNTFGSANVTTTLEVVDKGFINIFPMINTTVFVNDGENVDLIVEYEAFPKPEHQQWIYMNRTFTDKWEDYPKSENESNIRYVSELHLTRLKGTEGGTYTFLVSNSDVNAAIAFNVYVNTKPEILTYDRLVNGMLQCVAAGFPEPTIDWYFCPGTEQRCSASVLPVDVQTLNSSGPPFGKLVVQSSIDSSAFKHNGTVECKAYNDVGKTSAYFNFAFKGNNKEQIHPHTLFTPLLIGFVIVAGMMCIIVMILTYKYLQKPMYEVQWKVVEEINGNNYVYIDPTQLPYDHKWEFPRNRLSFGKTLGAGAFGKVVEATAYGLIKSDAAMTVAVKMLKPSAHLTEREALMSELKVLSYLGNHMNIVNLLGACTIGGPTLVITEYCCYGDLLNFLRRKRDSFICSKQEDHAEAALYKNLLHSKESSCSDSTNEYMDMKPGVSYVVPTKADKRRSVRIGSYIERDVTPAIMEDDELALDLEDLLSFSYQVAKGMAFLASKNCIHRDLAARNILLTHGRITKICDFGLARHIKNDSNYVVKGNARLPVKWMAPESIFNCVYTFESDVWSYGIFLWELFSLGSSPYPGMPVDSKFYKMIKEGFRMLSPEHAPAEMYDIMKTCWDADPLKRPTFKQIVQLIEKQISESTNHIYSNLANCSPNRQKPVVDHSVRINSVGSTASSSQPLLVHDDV
Serine/threonine-protein kinase Nek7 (Homo sapiens), sequence (Q8TDX7 whole entry, looked up, canonical isoform): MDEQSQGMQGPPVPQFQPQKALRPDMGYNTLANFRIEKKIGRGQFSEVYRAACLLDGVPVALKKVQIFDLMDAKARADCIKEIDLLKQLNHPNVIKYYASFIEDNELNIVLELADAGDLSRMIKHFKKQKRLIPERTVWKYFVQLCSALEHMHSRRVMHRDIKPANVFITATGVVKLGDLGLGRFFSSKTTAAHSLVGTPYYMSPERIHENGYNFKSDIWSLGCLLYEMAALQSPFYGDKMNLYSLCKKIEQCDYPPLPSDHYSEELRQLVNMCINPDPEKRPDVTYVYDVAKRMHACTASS

As a reminder, the IC50 is the concentration that inhibits the measured activity by half. Usually inhibition stands for the change of the read-out against control, counted positive when it falls. With `Cc1nc(C2CCN(C(=O)c3ccc(OC(F)(F)F)cc3N)CC2)c2ncc(N3CCN(C)CC3)cc2n1` [BAY-693], the residual activity in [1] was 97%; in test [2] it was 84%; in test [3], 100%; in test [4] it was 84%; in test [5], 100%; in [6], 88%. In addition, the residual activity was 100% in [7]; 100% in test [8]; 97% in test [9]; 84% in test [10]; 94% in [12]; 22% in test [13]. For the same molecule, the half-inhibitory concentration (IC50) in the test with BT-474 was 27.6 µM (not active). The inhibition in [11] was -5.65%.

As for `CN1CCN(c2cnc3c(C4CCN(C(=O)c5ccc(OC(F)(F)F)cc5N)CC4)ncnc3c2)CC1` [BAY-885], the residual activity is 100% in test [1]; 100% in test [2]; 100% in test [3]; 100% in [4]; 100% in test [5]; 62% in test [6]. In addition, the residual activity in [7] was 100%; in test [8], 100%; in test [9] it was 100%; in [10], 100%; in test [12], 92%; in [13], 0.1%. Moreover, the IC50 in the test on BT-474 was > 30 µM (not active). Further, the inhibition in test [11] was -4.21%.
